Assay results taken from patent publication US9422283B2, “Salts and polymorphs of a substituted imidazopyridinyl-aminopyridine compound” (ArQule, Inc., priority 2014, dated 2016).
≈ marks a conversion by molar mass, not a printed value. Entries after “also recorded” stand apart in the source; their conditions may differ. Structures can show the parent of a compound that is named as a salt.

What was measured:
Assay type in all cases: physicochemical
[1] = Thermodynamic aqueous solubility
Method: Aqueous solubility was determined by suspending sufficient compound in water to give a maximum final concentration of ≧10 mg/ml of the parent free-form of the compound. The suspension was equilibrated at 25° C. for 24 hours then the pH was measured. The suspension was then filtered through a glass fiber C filter. The filtrate was then diluted by an appropriate factor e.g., 101. Quantitation was by HPLC with reference to a standard solution of approximately 0.25 mg/ml in DMSO. Different volumes of the standard, diluted and undiluted sample solutions were injected. The solubility was calculated using the peak areas determined by integration of the peak found at the same retention time as the principal peak in the standard injection.
Analysis was performed on an Agilent HP1100 series system equipped with a diode array detector and using ChemStation software vB.02.01-SR1.

[2] = Storage stability of free base and salts (XRPD, IC, 1H NMR pre- and post-storage)
[3] = Gravimetric Vapor Sorption (GVS)
Method: Sorption isotherms were obtained using a SMS DVS Intrinsic moisture sorption analyzer, controlled by DVS Intrinsic Control software v1.0.0.30. The sample temperature was maintained at 25° C. by the instrument controls. The humidity was controlled by mixing streams of dry and wet nitrogen, with a total flow rate of 200 ml/min. The relative humidity was measured by a calibrated Rotronic probe (dynamic range of 1.0-100% RH), located near the sample. The weight change, (mass relaxation) of the sample as a function of % RH was constantly monitored by the microbalance (accuracy ±0.005 mg).
Typically 5-20 mg of sample was placed in a tared mesh stainless steel basket under ambient conditions. The sample was loaded and unloaded at 40% RH and 25° C. (typical room conditions). A moisture sorption isotherm was performed as outlined below (4 scans giving 2 complete cycles). The standard isotherm was performed at 25° C. at 10% RH intervals over a 0-90% RH range. Data analysis was undertaken in Microsoft Excel using DVS Analysis Suite v6.0.0.7.
The sample was recovered after completion of the isotherm and re-analysed by XRPD. 7.2. Dynamic Vapour Sorption (DVS)

[4] = Stability testing of bis-mesylate forms for 1 week (XRPD, HPLC purity)
Method: Form A, Form B, Form C, Form D, Form E and Form I were exposed to environments of 40° C./75% RH, ambient light (about 22° C.) and elevated temperature (80° C.) for 1 week to determine the stability. The resulting solids were analyzed by XRPD to establish if any form changes had occurred and by HPLC to determine purity.

[5] = Aqueous solubility studies of bis-mesylate forms (slurry in deionised water, HPLC, XRPD); conditions: about 24 hours; for polymorphic form after slurrying in deionised water (XRPD): ambient temperature
Method: Purity and concentration analyses were carried out using the following method:
• Pan Number 186003045 Column Temperature: 25° C. Autosampler Temperature: 5° C. Detection: 226 nm Mobile Phase A: 95:5:0.1% Water:Methanol:TFA Mobile Phase B: 95:5:0.1% Methanol:Water:TFA Gradient: See table below for conditions Flow Rate: 1.0 mL/minute Injection Volume: 10 μl Analysis Time: 36 minutes Re-equilibration Time: 4 minutes Data Collection time: 36 minutes Needle Wash: 100% Methanol
Slurries of Form A, Form B, Form C, Form D, Form E and Form I were created in deionised water and shaken for about 24 hours at ambient temperature (about 22° C.). The resulting solutions were then analyzed by HPLC and the aqueous solubility was determined. The remaining solids were analyzed by XRPD to determine if any form changes had occurred during slurrying.

[6] = Dynamic Vapour Sorption (DVS)
Method: Approximately 10 mg of sample was placed into a mesh vapour sorption balance pan and loaded into a DVS-1 dynamic vapour sorption balance by Surface Measurement Systems. The sample was subjected to a ramping profile of 0-90%, 90-0% relative humidity (RH) at 10% increments for anhydrous samples and 30-90%, 90-0%, 0-90%, 90-0% for hydrated samples, maintaining the sample at each step until a stable weight had been achieved (99.5% step completion). The weight changes during the sorption/desorption cycles were plotted, allowing the hygroscopic nature of the sample to be determined.

## Nc1ncccc1-c1nc2ccc(-c3ccccc3)nc2n1-c1ccc(C2(N)CCC2)cc1 [Compound A free base, 3-(3-(4-(1-aminocyclobutyl)phenyl)-5-phenyl-3H-imidazo[4,5-b]pyridin-2-yl)pyridin-2-amine]
[1]
  solubility in water (qualitative): insoluble in water

## Nc1ncccc1-c1nc2ccc(-c3ccccc3)nc2n1-c1ccc(C2(N)CCC2)cc1 [Compound A tris-HCl salt, 3-(3-(4-(1-aminocyclobutyl)phenyl)-5-phenyl-3H-imidazo[4,5-b]pyridin-2-yl)pyridin-2-amine]
[1]
  solubility in water (qualitative): highly soluble in water
[2]; stability study under storage, XRPD
  change of salt under storage: partially transformed to bis-HCl salt and/or mono-HCl salt

## Nc1ncccc1-c1nc2ccc(-c3ccccc3)nc2n1-c1ccc(C2(N)CCC2)cc1 [Compound A mesylate salt, 3-(3-(4-(1-aminocyclobutyl)phenyl)-5-phenyl-3H-imidazo[4,5-b]pyridin-2-yl)pyridin-2-amine]
[1]; water, 25 °C, thermodynamic from solid, in 5 min, pH 2.1
  solubility at 5 min: > 50 mg/mL
[3]
  change in XRPD after GVS: No change in XRPD after GVS
[2]; 40° C. and 75% RH, 7 days, XRPD and 1H NMR
  change after storage: No change in XRPD or ^1H NMR

## Nc1ncccc1-c1nc2ccc(-c3ccccc3)nc2n1-c1ccc(C2(N)CCC2)cc1 [Compound A HCl salt, 3-(3-(4-(1-aminocyclobutyl)phenyl)-5-phenyl-3H-imidazo[4,5-b]pyridin-2-yl)pyridin-2-amine]
[1]; water, 25 °C, thermodynamic from solid, pH 1.2, max conc. 50 mg/ml
  solubility at 24 h: 8.3 mg/mL
[3]; partial run, from 40-90% RH
  GVS water uptake: partial run: ~18 wt % water uptake
[2]; 40° C. and 75% RH, 7 days, 2.2 equi. HCl before storage
  HCl content by IC after storage: IC converted to 1.6 equi. HCl

## Nc1ncccc1-c1nc2ccc(-c3ccccc3)nc2n1-c1ccc(C2(N)CCC2)cc1 [Form E, 3-(3-(4-(1-aminocyclobutyl)phenyl)-5-phenyl-3H-imidazo[4,5-b]pyridin-2-yl)pyridin-2-amine]
[4]; 40° C./75% RH
  HPLC purity after stability test: about 99.8%
  polymorphic form after stability test (XRPD): remained unchanged
[4]; 80° C.
  HPLC purity after stability test: about 99.8%
  polymorphic form after stability test (XRPD): some differences were observed
[4]; ambient light (about 22° C.)
  polymorphic form after stability test (XRPD): remained unchanged
[4]; ambient temperature
  HPLC purity after stability test: about 99.7%
[5]; 22 °C, water, thermodynamic from solid, deionised water, ambient temperature (about 22° C.), read-out: aqueous solubility (HPLC concentration analysis)
  solubility at 24 h: ~347 mg/mL (≈ 802 mM)
[5]
  polymorphic form after slurrying in deionised water (XRPD): remained unchanged; also recorded: Form E
[6]
  DVS (summary Table 21): Two hydration
  DVS desorption behaviour / hysteresis: dehydration occurred below 10% RH
  hygroscopicity (DVS): non-hygroscopic
  polymorphic form after DVS analysis (XRPD): RH Form E post
[6]; second sorption cycle, below 20% RH
  DVS water uptake: about 2.78%
[6]; second sorption cycle, between 20% and 40% RH
  DVS further water uptake: 5.5%

## Nc1ncccc1-c1nc2ccc(-c3ccccc3)nc2n1-c1ccc(C2(N)CCC2)cc1 [Form 1, 3-(3-(4-(1-aminocyclobutyl)phenyl)-5-phenyl-3H-imidazo[4,5-b]pyridin-2-yl)pyridin-2-amine]
[3]; 0-90% RH
  water uptake (GVS): < 0.8 %, w/w
[3]; FIG. 5 GVS isotherm
  water absorption upon storage: Minimal water absorption
[2]; 25° C. and 0-96% RH, XRPD
  stability under storage: stable
[2]; 40° C. and 75% RH, one week, XRPD
  polymorphic form change on storage: transformed to Form 2

## Nc1ncccc1-c1nc2ccc(-c3ccccc3)nc2n1-c1ccc(C2(N)CCC2)cc1 [Form D, 3-(3-(4-(1-aminocyclobutyl)phenyl)-5-phenyl-3H-imidazo[4,5-b]pyridin-2-yl)pyridin-2-amine]
[4]; 40° C./75% RH
  HPLC purity after stability test: about 99.9%
  polymorphic form after stability test (XRPD): converted to Form J
[4]; 80° C.
  HPLC purity after stability test: about 99.9%
  polymorphic form after stability test (XRPD): Form I
[4]; ambient light (about 22° C.)
  polymorphic form after stability test (XRPD): remained unchanged
[4]; ambient temperature
  HPLC purity after stability test: about 99.9%
[5]
  polymorphic form after slurrying in deionised water (XRPD): converted to Form E
[6]
  DVS (summary Table 21): Hydration occurs
  DVS desorption behaviour / hysteresis: gradual loss of water and hence dehydration was observed as the relative humidity was decreased below 40% RH
[6]; second sorption cycle, between 30% and 50% RH, after dehydration at 0% RH
  DVS water uptake: about 12%
